Measurements taken from ChEMBL document CHEMBL1201862, “PubChem BioAssay data set” (2004).
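Values below derive from 48-hour exposures of cells grown in 96-well plates, with endpoints linearly interpolated between the two concentrations bracketing the appropriate inhibition level. Here, GI50 denotes the concentration required for 50% inhibition of growth.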 The source made the active and inactive calls. Cut-off read from the data, not from the text of the source: active = GI50 up to about 1.1 µM and inactive = higher.

Columns and labels:
Assay in all cases: NCI tumour cell line growth inhibition, 48 h
ACHN = tested on: ACHN
KM12 = tested on: KM12
RPMI-8226 = tested on: RPMI-8226
LOX IMVI = tested on: LOX IMVI
SF-268 = tested on: SF-268
CCRF-CEM = tested on: CCRF-CEM
SNB-75 = tested on: SNB-75
BT-549 = tested on: BT-549
U-251 = tested on: U-251
SF-295 = tested on: SF-295
OVCAR-4 = tested on: OVCAR-4
M14 = tested on: M14
SK-MEL-5 = tested on: SK-MEL-5
IGROV-1 = tested on: IGROV-1
OVCAR-5 = tested on: OVCAR-5
MCF7 = tested on: MCF7
SF-539 = tested on: SF-539
MOLT-4 = tested on: MOLT-4
UACC-257 = tested on: UACC-257
SK-MEL-28 = tested on: SK-MEL-28

SMILES	GI50 (ACHN)	GI50 (KM12)	GI50 (RPMI-8226)	GI50 (LOX IMVI)	GI50 (SF-268)	GI50 (CCRF-CEM)	GI50 (SNB-75)	GI50 (BT-549)	GI50 (U-251)	GI50 (SF-295)	GI50 (OVCAR-4)	GI50 (M14)	GI50 (SK-MEL-5)	GI50 (IGROV-1)	GI50 (OVCAR-5)	GI50 (MCF7)	GI50 (SF-539)	GI50 (MOLT-4)	GI50 (UACC-257)	GI50 (SK-MEL-28)
O=C(O)CC1NCc2cc3ccccc3nc21 (stereo not given)	> 100 µM (inactive)	> 100 µM (inactive)	> 100 µM (inactive)	> 100 µM (inactive)	> 100 µM (inactive)	> 100 µM (inactive)	> 100 µM (inactive)	> 100 µM (inactive)	> 100 µM (inactive)	> 100 µM (inactive)	> 100 µM (inactive)	> 100 µM (inactive)	> 100 µM (inactive)	> 100 µM (inactive)	> 100 µM (inactive)	> 100 µM (inactive)	> 100 µM (inactive)	> 100 µM (inactive)	> 100 µM (inactive)	> 100 µM (inactive)
O=C(CC(NC(=O)C(F)(F)F)C(=O)O)OCc1ccccc1 (stereo not given)	> 100 µM (inactive)	> 100 µM (inactive)	> 100 µM (inactive)	> 100 µM (inactive)	> 100 µM (inactive)	> 100 µM (inactive)	> 100 µM (inactive)	> 100 µM (inactive)	> 100 µM (inactive)	> 100 µM (inactive)	> 100 µM (inactive)	> 100 µM (inactive)	> 100 µM (inactive)	> 100 µM (inactive)	> 100 µM (inactive)	> 100 µM (inactive)	> 100 µM (inactive)	> 100 µM (inactive)	> 100 µM (inactive)	> 100 µM (inactive)
CCOP(=O)(OCC)C(C)(CC)NC1=NC(C(F)(F)F)(C(F)(F)F)NC(=O)N1 (stereo not given)	> 100 µM (inactive)	> 100 µM (inactive)	> 100 µM (inactive)	> 100 µM (inactive)	> 100 µM (inactive)	> 100 µM (inactive)	> 100 µM (inactive)	> 100 µM (inactive)	> 100 µM (inactive)	> 100 µM (inactive)	> 100 µM (inactive)	> 100 µM (inactive)	> 100 µM (inactive)	70.1 µM (inactive)	> 100 µM (inactive)	> 100 µM (inactive)	> 100 µM (inactive)	> 100 µM (inactive)	> 100 µM (inactive)	> 100 µM (inactive)
N#CC1N(C(=O)c2ccc(F)cc2)c2ccccc2N1C(=O)c1ccc(F)cc1	38.5 µM (inactive)	91.6 µM (inactive)	23.7 µM (inactive)	29 µM (inactive)	> 100 µM (inactive)	28 µM (inactive)	30.7 µM (inactive)	24.9 µM (inactive)	74.5 µM (inactive)	> 100 µM (inactive)	35.7 µM (inactive)	43.8 µM (inactive)	23.9 µM (inactive)	32.4 µM (inactive)	> 100 µM (inactive)	33 µM (inactive)	62.7 µM (inactive)	17.3 µM (inactive)	67.6 µM (inactive)	43.9 µM (inactive)
Cc1nc2ccccc2n1COC(Cn1ccnc1)c1ccc(Cl)cc1Cl (stereo not given)	34.8 µM (inactive)	71.4 µM (inactive)	35.2 µM (inactive)	50.8 µM (inactive)	78.3 µM (inactive)	88.9 µM (inactive)	53.6 µM (inactive)	33 µM (inactive)	86.9 µM (inactive)	71 µM (inactive)	30.4 µM (inactive)	> 100 µM (inactive)	22.4 µM (inactive)	> 100 µM (inactive)	> 100 µM (inactive)	41.7 µM (inactive)	> 100 µM (inactive)	30.1 µM (inactive)	31 µM (inactive)	> 100 µM (inactive)
NS(=O)(=O)c1ccc(NC(=S)N/C=C2\C(=O)Nc3ccccc3C2=O)cc1	> 100 µM (inactive)	> 100 µM (inactive)	> 100 µM (inactive)	> 100 µM (inactive)	> 100 µM (inactive)	> 100 µM (inactive)	> 100 µM (inactive)	> 100 µM (inactive)	> 100 µM (inactive)	> 100 µM (inactive)	> 100 µM (inactive)	> 100 µM (inactive)	> 100 µM (inactive)	> 100 µM (inactive)	> 100 µM (inactive)	> 100 µM (inactive)	> 100 µM (inactive)	> 100 µM (inactive)	> 100 µM (inactive)	> 100 µM (inactive)
CSCCC(N)C(=O)NCCNc1ccc(NCCNC(=O)C(N)CCSC)c2c1C(=O)c1ccccc1C2=O (stereo not given)	0.456 µM (active)	1.27 µM (inactive)	1.35 µM (inactive)	0.624 µM (active)	0.659 µM (active)	0.528 µM (active)	1.57 µM (inactive)	1.48 µM (inactive)	0.6 µM (active)	1.57 µM (inactive)	1.67 µM (inactive)	3.38 µM (inactive)	3.48 µM (inactive)	2.12 µM (inactive)	1.99 µM (inactive)	0.409 µM (active)	0.973 µM (active)	0.123 µM (active)	3.25 µM (inactive)	1.75 µM (inactive)
